Data on seven compounds can be found in ChEMBL document CHEMBL1629466, “Synthesis and biological activity of some antitumor active derivatives from glycyrrhetinic acid” (Eur J Med Chem, 2010).

Calls of active or inactive are those of the source. The rule behind the calls is not given here.

Common to all, as to type: functional, cell-based
Test [1] relates to A-431. Kind of test: Induction of apoptosis in human A431 cells assessed as DNA fragmentation at IC90 concentration after 24 hrs by gel electrophoresis analysis.
Test [2] has as its system A2780. Briefly: Induction of apoptosis in human A2780 cells assessed as DNA fragmentation at IC90 concentration after 24 hrs by gel electrophoresis analysis.
The nature of test [3]: Cytotoxicity against human 518A2 cells after 96 hrs by sulforhodamine B assay. Background: Sulforhodamine B stains cellular protein and so reports cell mass.
Another test has as its system 8505C. Briefly: Cytotoxicity against human 8505C cells after 96 hrs by sulforhodamine B assay.
A short description of test [4]: Cytotoxicity against human A253 cells after 96 hrs by sulforhodamine B assay.
The test system of test [5] is A2780. Kind of test: Cytotoxicity against human A2780 cells after 96 hrs by sulforhodamine B assay.
A further test concerns A549. Kind of test: Cytotoxicity against human A549 cells after 96 hrs by sulforhodamine B assay.
The subject of another test is DLD-1. Kind of test: Cytotoxicity against human DLD1 cells after 96 hrs by sulforhodamine B assay.
For the next test, the system named is FaDu. Kind of test: Cytotoxicity against human FADU cells after 96 hrs by sulforhodamine B assay.
The next test has as its system HCT-116. Briefly: Cytotoxicity against human HCT116 cells after 96 hrs by sulforhodamine B assay.
A further test relates to HCT-8. Kind of test: Cytotoxicity against human HCT8 cells after 96 hrs by sulforhodamine B assay.
The test system of another test is HT-29. Briefly: Cytotoxicity against human HT-29 cells after 96 hrs by sulforhodamine B assay.
A short description of test [6]: Cytotoxicity against human Lipo cells after 96 hrs by sulforhodamine B assay.
In the next test the test system is MCF7. Briefly: Cytotoxicity against human MCF7 cells after 96 hrs by sulforhodamine B assay.
Another test relates to SW-1736. Briefly: Cytotoxicity against human SW1736 cells after 96 hrs by sulforhodamine B assay.
Another test has as its system SW480. Kind of test: Cytotoxicity against human SW480 cells after 96 hrs by sulforhodamine B assay.
Test [7] deals with A-431. Briefly: Induction of apoptosis in human A431 cells at IC90 concentration after 24 hrs by trypan blue exclusion assay.
Test [8] deals with A2780. Kind of test: Induction of apoptosis in human A2780 cells at IC90 concentration after 24 hrs by trypan blue exclusion assay.

As to `COC(=O)[C@@]1(C)CC[C@]2(C)CC[C@]3(C)C(=CC(=O)[C@@H]4[C@@]5(C)CC[C@H](OC(=O)CNCCCCCCN)C(C)(C)[C@@H]5CC[C@]43C)[C@@H]2C1`, the outcome in the test with A-431 [1], in the test on A2780 [2], with A-431 [7] and in the test on A2780 [8] was Active. The IC50 in test [3] came out at 1.09 µmol; with 8505C, 1.68 µmol; in [4] it was 1.12 µmol; in the test on A2780 [5] it was 1.36 µmol; with A549, 1.59 µmol; in the test with DLD-1, 0.91 µmol. Moreover, the IC50 in the test with FaDu amounted to 1.78 µmol; in the test with HCT-116, 1.17 µmol; in the test on HCT-8, 0.62 µmol; in the test on HT-29, 0.59 µmol; in [6] it was 1.59 µmol; with MCF7, 1.17 µmol. The IC50 was 1.61 µmol in the test on SW-1736 and 2.25 µmol in the test with SW480.

Turning to `COC(=O)[C@@]1(C)CC[C@]2(C)CC[C@]3(C)C(=CC(=O)[C@@H]4[C@@]5(C)CC[C@H](O)C(C)(C)[C@@H]5CC[C@]43C)[C@@H]2C1`, the IC50 in test [3] amounted to 27.54 µmol; in the test on 8505C, 26.07 µmol; in [4], 19.42 µmol; in the test with A2780 [5] it was 25.54 µmol; in the test on A549, 23.5 µmol; with DLD-1, 26.12 µmol. For the same compound, the IC50 in the test with FaDu was found to be 23.41 µmol; in the test on HCT-116, 22.1 µmol; in the test on HCT-8, 24.36 µmol; in the test on HT-29 it was 27.54 µmol; in [6], 20.47 µmol; with MCF7 it was 22.14 µmol. Further, the IC50 in the test with SW-1736 came out at 34.87 µmol; in the test with SW480 it was 16.08 µmol.

In the case of `CC1(C)[C@@H](OC(=O)CCl)CC[C@]2(C)[C@H]3C(=O)C=C4[C@@H]5C[C@@](C)(C(=O)O)CC[C@]5(C)CC[C@@]4(C)[C@]3(C)CC[C@@H]12`, the IC50 in [3] amounted to 25.43 µmol; with 8505C, 26.08 µmol; in test [4], 25.54 µmol; in the test with A2780 [5], 23.77 µmol; with A549, 24.8 µmol; with DLD-1, 17.36 µmol. Moreover, the IC50 in the test on FaDu was 23.56 µmol; in the test with HCT-116 it was 14.41 µmol; in the test on HCT-8 it was 13.39 µmol; in the test with HT-29 it was 16.91 µmol; in test [6] it was 25.39 µmol; in the test with MCF7, 25.11 µmol. In addition, the IC50 with SW-1736 worked out at 16.42 µmol; in the test on SW480, 25.91 µmol.

As for `COC(=O)[C@@]1(C)CC[C@]2(C)CC[C@]3(C)C(=CC(=O)[C@@H]4[C@@]5(C)CC[C@H](OC(=O)CNCCCCCCCCCCN)C(C)(C)[C@@H]5CC[C@]43C)[C@@H]2C1`, the IC50 came out at 4.33 µmol in test [3]; 7.6 µmol with 8505C; 5.48 µmol in [4]; 3.63 µmol with A2780 [5]; 5.16 µmol in the test on A549; 5.53 µmol with DLD-1. The IC50 in the test on FaDu is 5.65 µmol; in the test with HCT-116, 3.86 µmol; in the test on HCT-8, 4.07 µmol; with HT-29 it was 2.73 µmol; in test [6], 6.93 µmol; in the test on MCF7, 2.68 µmol. Besides, the IC50 in the test with SW-1736 was 3.73 µmol; in the test with SW480 it was 4.73 µmol.

Turning to `COC(=O)[C@@]1(C)CC[C@]2(C)CC[C@]3(C)C(=CC(=O)[C@@H]4[C@@]5(C)CC[C@H](OC(=O)CNCCCCN)C(C)(C)[C@@H]5CC[C@]43C)[C@@H]2C1`, the IC50 was 2.55 µmol in [3]; 2.12 µmol with 8505C; 2.56 µmol in test [4]; 2.43 µmol in the test on A2780 [5]; 3.31 µmol in the test on A549; 2.66 µmol in the test with DLD-1. Also, the IC50 is 3.51 µmol in the test on FaDu; 2.41 µmol in the test with HCT-116; 1.51 µmol in the test with HCT-8; 1.69 µmol in the test on HT-29; 2.57 µmol in [6]; 2.45 µmol in the test with MCF7. Also, the results for the IC50 in the test with SW-1736 and in the test with SW480 were 3.3 µmol and 2.54 µmol, respectively.

In the case of `COC(=O)[C@@]1(C)CC[C@]2(C)CC[C@]3(C)C(=CC(=O)[C@@H]4[C@@]5(C)CC[C@H](OC(=O)CNCCCN)C(C)(C)[C@@H]5CC[C@]43C)[C@@H]2C1`, the IC50 in test [3] was determined as 3.79 µmol; in the test with 8505C, 3.37 µmol; in test [4] it was 3.64 µmol; in the test with A2780 [5], 4.39 µmol; in the test on A549, 5.15 µmol; in the test on DLD-1, 4.39 µmol. Besides, the IC50 in the test with FaDu amounted to 5.57 µmol; in the test with HCT-116, 4.3 µmol; in the test on HCT-8, 2.37 µmol; with HT-29, 2.9 µmol; in test [6], 3.89 µmol; in the test with MCF7 it was 3.55 µmol. The IC50 in the test on SW-1736 was 6.05 µmol; with SW480, 3.68 µmol.

As to `COC(=O)[C@@]1(C)CC[C@]2(C)CC[C@]3(C)C(=CC(=O)[C@@H]4[C@@]5(C)CC[C@H](OC(=O)CNCCCCCCCCN)C(C)(C)[C@@H]5CC[C@]43C)[C@@H]2C1`, the IC50 in [3] stood at 3.49 µmol; in the test on 8505C, 3.35 µmol; in test [4] it was 3.01 µmol; in the test on A2780 [5] it was 2.8 µmol; in the test on A549 it was 4.08 µmol; with DLD-1, 3.96 µmol. Besides, the IC50 was found to be 4.26 µmol in the test with FaDu; 3.53 µmol in the test with HCT-116; 2.92 µmol in the test with HCT-8; 2.76 µmol in the test on HT-29; 4.36 µmol in test [6]; 3.89 µmol in the test on MCF7. Further, the results for the IC50 with SW-1736 and in the test with SW480 were 4.09 µmol and 3.93 µmol, respectively.
